Results on five compounds are retold here after patent publication US9969775B2, “CGRP antagonist peptides” (Ferring B.V., priority 2015, dated 2018).

Bridge positions count the residues as written; N and C are the ends. Square brackets hold non-standard residues; d marks the D form. Peptide text beside a SMILES is read from it. * marks the point of attachment. Phe(2-CONH2) = NC(=O)c1ccccc1C[C@H](N)C(=O)O; Picolinoyl(5-F) = O=C(c1ccc(F)cn1)*; Orn(iPr) = CC(C)NCCC[C@H](N)C(=O)O; Benzoyl(4-F) = O=C(c1ccc(F)cc1)*; 3Pal = N[C@@H](Cc1cccnc1)C(=O)O; Orn = NCCC[C@H](N)C(=O)O; X8 = CC(C)NCCOCCOCC(=O)*; X6 = O=C(c1ccncn1)*

Assay [1] has as its target T1, hAM2 receptor (CALCRL:RAMP3) (Homo sapiens, UniProt O60896+Q16602).
T1 construct: expressed in transfected cells; host or cells: GeneBLAzer CALCRL:RAMP3-CRE-bla Freestyle 293F
The experiment in a line: AM2 receptor antagonist activity measured by cAMP assay (HTRF). In kind it is cell-based. As to conditions: for Emax: % MPE: percent of the maximal possible effect, read-out: hAM2-R Efficacy Antag (%) Ave; for Emax / IC50: agonist human adrenomedullin; for IC50: GeneBLAzer CALCRL:RAMP3-CRE-bla Freestyle 293F cells, read-out: hAM2-R IC50 Ave; for selectivity ratio CGRP/AM2: selectivity ratio for hCGRP over hAM2, calculated from the IC50 values.

For assay [2], the target named is T2, hCGRP receptor (CALCRL:RAMP1) (Homo sapiens, UniProt O60894+Q16602).
T2 construct: host or cells: GeneBLAzer CALCRL:RAMP1-CRE-bla Freestyle 293F
The experiment in a line: CGRP receptor antagonist activity measured by cAMP assay (HTRF). The assay is classed as cell-based. As to conditions: agonist human α-CGRP; for Emax: % MPE: percent of the maximal possible effect, read-out: hCGRP-R Efficacy Antag (%) Ave; for IC50: GeneBLAzer CALCRL:RAMP1-CRE-bla Freestyle 293F cells, 30 minutes, read-out: hCGRP-R IC50 Ave. On the procedure:
Example 6: CGRP Receptor Antagonist Activity Measured by cAMP Assay
CGRP receptor agonists increase intracellular cyclic adenosine mono-phosphate (cAMP). CGRP receptor antagonists can reduce the agonist effect. Antagonist activity was assessed by measurement of cyclic adenosine mono-phosphate (cAMP) using cell line stably expressing the hCGRP receptor (GeneBLAzer® CALCRL:RAMP1-CRE-bla Freestyle™ 293F, Invitrogen). hCGRP receptor expressing cells were maintained in DMEM high-glucose with GlutaMAX™ containing 10% (v/v) FBS, 0.1 mM NEAA, 25 mM HEPES, 5 ug/ml Blasticidin, 100 ug/ml Hygromycin, and 400 ug/ml Geneticin at 37° C. under 5% CO2 in a humidified atmosphere. For cAMP measurement, cells were washed once with 5 ml 1×PBS, cell maintenance media was replaced with compound buffer ((CB): DMEM containing 0.1% BSA and 0.5 mM IBMX), and flasks were incubated for 1 hour at 37° C. under 5% CO2 in a humidified atmosphere. Cells were removed from culture flasks using non-enzymatic cell dissociation buffer and harvested in CB. The reaction was performed in 384 well white small volume plates (Greiner) at a density of 10,000 cells/well. Cells were exposed to varying concentrations of antagonist compounds for 30 minutes in the presence of a fixed concentration of agonist (human α-CGRP). cAMP levels were measured using an HTRF (homogeneous time resolved fluorescence)-based competitive cAMP immunoassay (cAMP Dynamic 2 Kit, Cisbio), according to the manufacturer's instructions. […] Reported parameters include antagonist potency IC50 (the concentration causing half-maximal inhibition of the agonist response for antagonist compounds) and efficacy (% MPE: percent of the maximal possible effect).

T2 sequence (Q16602 23-461): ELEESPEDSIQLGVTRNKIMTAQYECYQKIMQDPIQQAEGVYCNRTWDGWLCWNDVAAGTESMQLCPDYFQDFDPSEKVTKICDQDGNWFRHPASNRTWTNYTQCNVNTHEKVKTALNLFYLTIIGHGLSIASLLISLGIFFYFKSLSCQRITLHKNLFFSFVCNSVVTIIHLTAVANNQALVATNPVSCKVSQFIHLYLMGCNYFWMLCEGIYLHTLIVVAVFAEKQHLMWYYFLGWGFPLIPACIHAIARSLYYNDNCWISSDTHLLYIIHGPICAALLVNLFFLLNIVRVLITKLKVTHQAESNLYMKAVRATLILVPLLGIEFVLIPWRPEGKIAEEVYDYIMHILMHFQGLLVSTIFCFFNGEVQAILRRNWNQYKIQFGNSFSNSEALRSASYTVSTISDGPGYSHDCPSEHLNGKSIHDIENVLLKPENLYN
T2 sequence (O60894 27-148): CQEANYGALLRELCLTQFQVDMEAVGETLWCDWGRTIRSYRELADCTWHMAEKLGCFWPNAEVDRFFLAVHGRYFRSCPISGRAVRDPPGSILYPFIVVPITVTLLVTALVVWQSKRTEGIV
T1 sequence (Q16602 23-461): as the sequence (Q16602 23-461) above
T1 sequence (O60896 24-148): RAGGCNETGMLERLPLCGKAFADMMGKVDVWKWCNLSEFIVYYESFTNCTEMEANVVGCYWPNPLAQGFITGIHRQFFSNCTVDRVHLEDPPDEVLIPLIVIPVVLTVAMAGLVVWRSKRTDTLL

A word on the IC50: it is the concentration at which inhibition is half-maximal. Consider `CC(C)[C@@H]1NC(=O)[C@H](CC(=O)O)NC(=O)[C@H](CCCN)NC(=O)[C@@H](NC(=O)[C@H](Cc2ccc(O)cc2)NC(=O)[C@H](NC(=O)c2ccc(F)cn2)C(C)C)CSSC[C@@H](C(=O)N[C@@H](Cc2cccnc2)C(N)=O)NC(=O)[C@H](Cc2ccccc2)NC(=O)[C@@H]2CCCN2C(=O)CNC1=O` [Compound 12, Picolinoyl(5-F)-D-Val-Tyr-c(Cys-Orn-Asp-Val-Gly-Pro-Phe-Cys)-3Pal-NH2] ({Picolinoyl(5-F)}-[dV]YC[Orn]DVGPFC[3Pal]-NH2; disulfide 3-10), for which, in assay [1], the Emax was 100%, the IC50 was 18 nM and the “selectivity ratio CGRP/AM2” value was 172. Moreover, in assay [2], the Emax is 100% and the IC50 was 0.11 nM.

With `CC(C)NCCOCCOCC(=O)NCCC[C@@H]1NC(=O)[C@@H](NC(=O)[C@H](Cc2ccc(O)cc2)NC(=O)[C@H](NC(=O)c2ccc(F)cn2)C(C)C)CSSC[C@@H](C(=O)N[C@@H](Cc2cccnc2)C(N)=O)NC(=O)[C@H](Cc2ccccc2)NC(=O)[C@@H]2CCCN2C(=O)CNC(=O)[C@H](C(C)C)NC(=O)[C@H](CC(=O)O)NC1=O` [Compound 13, Picolinoyl(5-F)-D-Val-Tyr-c(Cys-Orn(CO—CH2—(O—(CH2)2)2—NH-iPr)-Asp-Val-Gly-Pro-Phe-Cys)-3Pal-NH2] ({Picolinoyl(5-F)}-[dV]YC[Orn](X8)DVGPFC[3Pal]-NH2; disulfide 3-10), in assay [1], the Emax was 100%, the IC50 is 26 nM and the “selectivity ratio CGRP/AM2” value is 249. Besides, in assay [2], the Emax was 100% and the IC50 is 0.1 nM.

As to `CC(C)NCCC[C@@H]1NC(=O)[C@@H](NC(=O)[C@H](Cc2ccc(O)cc2)NC(=O)[C@H](NC(=O)c2ccc(F)cn2)C(C)C)CSSC[C@@H](C(=O)N[C@@H](Cc2cccnc2)C(N)=O)NC(=O)[C@H](Cc2ccccc2)NC(=O)[C@@H]2CCCN2C(=O)CNC(=O)[C@H](C(C)C)NC(=O)[C@H](CC(=O)O)NC1=O` [Compound 14, Picolinoyl(5-F)-D-Val-Tyr-c(Cys-Orn(iPr)-Asp-Val-Gly-Pro-Phe-Cys)-3Pal-NH2] ({Picolinoyl(5-F)}-[dV]YC[Orn(iPr)]DVGPFC[3Pal]-NH2; disulfide 3-10), in assay [1], the Emax was 100%, the half-maximal inhibitory concentration (IC50) is 20 nM and the “selectivity ratio CGRP/AM2” value was 167. In assay [2], the Emax is 100% and the IC50 was 0.12 nM.

On to `CC(C)[C@@H]1NC(=O)[C@H](CC(=O)O)NC(=O)[C@H](CCCNC(=N)N)NC(=O)[C@@H](NC(=O)[C@H](Cc2ccccc2C(N)=O)NC(=O)[C@H](NC(=O)c2ccc(F)cc2)C(C)C)CSSC[C@@H](C(=O)N[C@@H](Cc2cccnc2)C(N)=O)NC(=O)[C@H](Cc2ccccc2)NC(=O)[C@@H]2CCCN2C(=O)CNC1=O` [Compound 15] ({Benzoyl(4-F)}-[dV][Phe(2-CONH2)]CRDVGPFC[3Pal]-NH2; disulfide 3-10), for which, in assay [1], the Emax is 99%, the IC50 was 58 nM and the “selectivity ratio CGRP/AM2” value is 610. In assay [2], the Emax is 100% and the IC50 was 0.1 nM.

As for `CC(C)[C@@H]1NC(=O)[C@H](CC(=O)O)NC(=O)[C@H](CCCNC(=N)N)NC(=O)[C@@H](NC(=O)[C@H](Cc2ccc(O)cc2)NC(=O)[C@H](NC(=O)c2ccncn2)C(C)C)CSSC[C@@H](C(=O)N[C@@H](Cc2cccnc2)C(N)=O)NC(=O)[C@H](Cc2ccccc2)NC(=O)[C@@H]2CCCN2C(=O)CNC1=O` [Compound 16] (X6-[dV]YCRDVGPFC[3Pal]-NH2; disulfide 3-10), in assay [1], the Emax was 101%, the IC50 is 6.8 nM and the “selectivity ratio CGRP/AM2” value is reported as 93. Also, in assay [2], the Emax is 100% and the 50% inhibitory concentration (IC50) is 0.07 nM.
